From patent US7572888B2, “Methods of assaying receptor activity and constructs useful in such methods” (Duke University, priority 1997, dated 2009)

Tests used:
μ opioid receptor (μOR) = μ opioid receptor (μOR) (Mus musculus, UniProt P42866); details: given before morphine, wild type and βarr2-KO mice (data not shown)
Method: The “response” was defined by the animal either licking the fore- or hind-paws or flicking the hind-paws. […] To avoid tissue damage the animals were not exposed to the plate for more than 30 seconds. […] WT (n=6), heterozygotes (+/−, n=5) and KO (n=9) mice were analyzed together in the same experiment.
The degree of antinociception was determined by measuring latency of hot plate (56° C.) responses (FIG. 2). […] After 10 min., antinociception was assessed once more. […] Means±S.E.M. are shown.
After 30 minutes or 2 hours, wild-type mice were killed and blood was collected in vials containing sodium fluoride and potassium-oxalate.

μORs = molecular target: T1, μORs (Mus musculus, UniProt P42866); test: Agonist-stimulated [35S]GTPγS binding to periaqueductal gray membranes; type: biochemical; details: PAG membranes, 50-10,000 nM, 2 hour, 30° C.
T1 construct: from tissue; host or cells: crude membranes of mouse hypothalamus, brain stem and periaqueductal gray
T1 sequence (P42866 whole entry): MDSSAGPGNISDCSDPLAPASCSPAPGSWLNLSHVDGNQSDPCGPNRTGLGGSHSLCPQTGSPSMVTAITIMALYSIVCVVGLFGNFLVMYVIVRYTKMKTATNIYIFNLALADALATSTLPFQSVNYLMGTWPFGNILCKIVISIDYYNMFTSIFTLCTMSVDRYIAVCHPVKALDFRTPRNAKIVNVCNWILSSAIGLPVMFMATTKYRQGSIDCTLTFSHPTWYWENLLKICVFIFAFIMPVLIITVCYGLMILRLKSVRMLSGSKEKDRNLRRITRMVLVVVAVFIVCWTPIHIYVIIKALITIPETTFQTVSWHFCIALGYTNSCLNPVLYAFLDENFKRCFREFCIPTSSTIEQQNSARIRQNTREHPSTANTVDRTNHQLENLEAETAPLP

dopamine receptor = test: Locomotor responses to dopamine receptor stimulation; type: in vivo, mouse; details: data not shown
Source text: For example, locomotor responses to dopamine receptor stimulation by cocaine and apornorphine were not enhanced (data not shown). […] Other regulatory elements, such as GRKs or βarrestin-1, could compensate for the lack of βarrestin-2, or the receptors could vary in their requirement for βarrestin interaction for their regulation.

[1] = Rectal body temperature after morphine; type: in vivo, mouse; details: after morphine treatment
μOR = details: cited from earlier work

Chain of μ opioid receptor (μOR) (P42866 whole entry): as above

SMILES: Oc1ccc2c3c1O[C@H]1c4[nH]c5ccccc5c4C[C@@]4(O)[C@@H](C2)N(CC2CC2)CC[C@]314 [naltrindole]
- inhibition of morphine analgesia (μ opioid receptor (μOR)): did not inhibit analgesia

SMILES: Oc1ccc2c3c1O[C@H]1c4[nH]c5c(c4C[C@@]4(O)[C@@H](C2)N(CC2CC2)CC[C@]314)C[C@@]1(O)[C@H]2Cc3ccc(O)c4c3[C@@]1(CCN2CC1CC1)[C@H]5O4 [nor-binaltorphimine]
- inhibition of morphine analgesia (μ opioid receptor (μOR)): did not inhibit analgesia

SMILES: C[C@@H](NC(=O)[C@@H](N)Cc1ccc(O)cc1)C(=O)NCC(=O)N(C)[C@@H](Cc1ccccc1)C(=O)NCCO [DAMGO, [D-Ala^2, MePhe^4, Gly^5-ol]enkephalin]
- [35S]GTPγS binding in βarr2-KO membranes compared to wild-type (μORs): stimulated more [^35S]GTPγS binding

SMILES: CN1CCc2cccc3c2[C@H]1Cc1ccc(O)c(O)c1-3 [apornorphine]
- locomotor responses in βarr2-KO vs wild type (dopamine receptor): not enhanced

SMILES: CN1CC[C@]23c4c5ccc(O)c4O[C@H]2[C@@H](O)C=C[C@H]3[C@H]1C5 [morphine]
- change in body temperature, βarr2-KO vs wild-type [1]: greater drop in body temperature
- internalization of the μOR (μOR; transfected cells, rat μOR or mouse MOR1): fails to induce the internalization of the μOR
- translocation of GFP-tagged βarrestin-2 to μOR (μOR; μOR overexpressed in cell culture, exposure to morphine): fails to translocate
